Laboratory results from patent US20080039461A1, “Treatment of pain by inhibition of p38 map kinase” (priority 2002, published 2008).

Tests used:
Format in all cases: in vivo, rat
[1] = system: carrageenan-induced thermal hyperalgesia; experiment: carrageenan-induced thermal hyperalgesia (Hargreaves-type device)
Experimental: Hyperalgesia was induced in the rat's right hindpaw by intraplantar injection of carrageenan (2 mg in 0.1 ml of a […] solution (weight/volume) in physiological saline). To assess the thermally evoked paw withdrawal time, a device modeled after that described by Hargreaves (1988) was used. See Hargreaves K, Dubner R, Brown F, Flores C, Joris J. A new and sensitive method for measuring thermal nociception in cutaneous hyperalgesia, Pain, 32, 77-88 (1988). The device consisted of a glass surface on top of which the rats were placed. The glass surface was heated by a focused projection bulb below the glass surface. The first sign of discomfort is usually expressed as an attempt to sit up and lick the forepaws by the experimental animal. This response indicates a threshold of pain under the predetermined conditions. Dancing and jumping about by an undrugged animal is an indicator of unbearable pain; whereas drugged animals more commonly withdraw the hind paws and keep them close to their abdomen. A timer was actuated with the light source and latency defined as the time required for the paw to be withdrawn from the glass surface. See Dirig D M, Isakson P C, and Yaksh T L. J Pharmacol Exp Ther., 285, 1031-8 (1998).

[2] = system: formalin-induced flinching behavior; experiment: formalin-induced flinching (paw formalin model); conditions: intrathecal pre-treatment (-10 min)
Experimental: An evaluation was conducted to determine presence or lack thereof for an afferent-mediated induction of phosphorylated (activated) spinal p38 MAPK. A formalin mediated hyperalgesia model was utilized to conduct the evaluation. (In the formalin model, a standard dose of formalin is injected into the rat paw, and flexions of the paw are quantitated over the following 90 minute period. A biphasic response pattern is typically observed, with numerous responses observed during the period five minutes after injection (Phase 1) and a second phase (Phase 2), which occurs during the period about 10-60 minutes following injection. The mean number of flinches per minute is recorded as a function of time. Quantitation of responses during each phase can be accomplished by calculation of area under the curve of flinches/minute.) The formalin induction model reflects several levels of processing of nociceptive information in the spinal cord. See, e.g., U.S. Pat. No. 6,166,085. […] This second phase is thought to represent a state of facilitated processing evoked by the afferent input present during phase I and to involve release of at least two substances, glutamate and a tachykinin, based on pharmacological evidence. Injection of formalin into the paw evokes an initial burst of afferent input followed by a persistent low level discharge. […]

[3] = system: thermal hyperalgesia induced by IT sP; experiment: thermal hyperalgesia evoked by intrathecal substance P; conditions: intrathecal pretreatment (-10 min); sP 30 nmol/10 μL
Experimental: (The inhibitory activity of SD for p38 alpha and p38 beta was evaluated with an assay using recombinant (E. coli) human enzymes and myelin basic protein as a substrate by the methods of Clerk and Kumar respectively. See A. Clerk, P. […]. Sugden, FEBS Lett 426, 93-6. (1998) and S. Kumar, et al., Biochem Biophys Res Commun 235, 533-8. (1997).
(§1) Male Sprague-Dawley rats (300-350 g) were implanted under isoflurane anesthesia with lumbar polyethylene (PE-10) catheters according to a modified method originally described in Physiol. Behav. 17, 1031 (1976). […] IT saline and 5% DMSO alone had no effect on behavior or protein expression/phosphorylation.

[4] = system: NMDA-induced hyperalgesia; experiment: hyperalgesia induced by intrathecal NMDA; conditions: IT NMDA 0.3 μg; MK801 10 μg, IT SD 3-60 μg, IT SB 1-30 μg, SA 10 μg
From the text: as §1

C[S+]([O-])c1ccc(-c2nc(-c3ccncc3)c(-c3ccc(F)cc3)[nH]2)cc1 (centres unmarked) [SB, SB203580]
carrageenan-induced thermal hyperalgesia ([1]; intrathecal pre-treatment (-10 min)): potent dose-dependent suppression
response latency of the uninduced paw ([1]; intrathecal, even after the highest doses): no changes
second phase of flinching behavior induced by formalin [2]: potent dose-dependent attenuation
thermal hyperalgesia induced by IT sP [3]: blocked the thermal hyperalgesia induced by IT sP in a dose dependent fashion
hyperalgesia induced by IT NMDA [4]: reversed in a dose dependent fashion
